Measured values: PMC4542541, “Flexibility and extracellular opening determine the interaction between ligands and insect sulfakinin receptors” (Scientific Reports, 2015)
Entries after “also recorded” stand apart in the source; their conditions may differ.

Legend:
TcSKR2 [1] = experiment: Receptor activation bioassay, CRE-luciferase reporter in Sf9-TcSKR2 cells; type: cell-based, Tribolium castaneum; set-up: key to peptide marked active on TcSKR2: *: A peptide is active on the sulfakinin receptor (SKR); conditions: for peptide marked active on TcSKR2: 10 μM, one-way ANOVA with Dunnett's posttest vs nsSK and medium control; for activity on TcSKR2 in words: compared to parental peptide nsSK, Sf9 cell-based reporter; for relative activity (% nsSK) TcSKR2: peptide 10 μM, Sf9-TcSKR2 cells transiently transfected with pGL4.29[luc2P/CRE/Hygro], 5 h at 27 °C, Bright-Glo luminescence, activity related to nsSK, mean ± SEM, at least two biological replicates, SEM
Description: (§1) Sf9 cells (Spodoptera frugiperda) and Sf9-TcSKR1 and Sf9-TcSKR2 cells generated previously[21] were routinely cultured in SF-900™ II SFM medium (Life Technologies, Merelbeke, Belgium) at 27 °C in darkness. The medium for Sf9-TcSKR1 and Sf9-TcSKR2 was supplemented with 20 μg/ml of puromycin (Life Technologies, Merelbeke, Belgium) to maintain the stable expression of TcSKRs.
(§2) The reporter vector pGL4.29[luc2P/CRE/Hygro] (CRE; Promega, Leiden, the Netherlands) was applied here and it has a cAMP (cyclic adenosine 3′, 5′-cyclic monophosphate) response element upstream the reporter gene luciferase, through which the cAMP signaling regulates the transcription of luciferase proportionally. Thus, the readout of the luminescence corresponds to the extent to which the expressed TcSKR is activated in Sf9 cells. The SK-related peptides (Table 1) were tested at concentrations of 0.1, 1 and 10 μM.
(§3) Sf9, Sf9-TcSKR1 and Sf9-TcSKR2 cells were all transiently transfected with pGL4.29[luc2P/CRE/Hygro] using ESCORT™ IV transfection reagent (Sigma-Aldrich, Bornem, Belgium) following the manufacturer’s instruction. Medium was supplemented with 200 μg/ml hygromycin (Life Technologies, Merelbeke, Belgium) 24 h post-transfection. The transient cells (Sf9-CRE, Sf9-TcSKR1-CRE, Sf9-TcSKR2-CRE) were seeded at 20,000 cells per well in white 96-well plates (Greiner Bio-One, Frickenhausen, Germany). After 12 h, cells had attached to the well bottom and the medium was replaced by fresh medium containing peptide of designated concentrations. Each concentration was tested in three replicates and the entire assay was repeated at least twice. Two kinds of negative control were included. […] Second, Sf9-CRE cells were used as a negative control to eliminate the potential internal factors that were activated by peptide samples. Cells were incubated with a peptide for 5 h at 27 °C and then Bright-Glo™ luciferase assay (Promega, Leiden, the Netherlands) was carried out according to the manufacturer’s instruction. Light emission, resulting from the luciferase activity was measured for 10 seconds per well using an Infinite® 200 PRO microplate reader (Tecan, Mechelen, Belgium).
(§4) In the receptor activation bioassay, the activity of a peptide on TcSKR was represented by the increased luminescence units, calculated with the following formula: activitypeptide = (luminescencepeptide – luminescencemedium)/luminescencemedium × 100. The activity of SK-related peptide was compared to that of nsSK and medium control by one-way analysis of variance with the Dunnett’s posttest in GraphPad Prism version 5.00 (GraphPad Software, La Jolla, CA). The activity of a SK-related peptide was also related to the activity of nsSK as a percentage value, calculated with the formula: relative activity of peptide (% nsSK) = activitypeptide/activitynsSK × 100.

TcSKR1 = experiment: Receptor activation bioassay, CRE-luciferase reporter in Sf9-TcSKR1 cells; type: cell-based, Tribolium castaneum; set-up: key to peptide marked active on TcSKR1: *: A peptide is active on the sulfakinin receptor (SKR); conditions: for peptide marked active on TcSKR1: 10 μM, one-way ANOVA with Dunnett's posttest vs nsSK and medium control; for activity on TcSKR1 in words: compared to parental peptide nsSK, Sf9 cell-based reporter; for relative activity (% nsSK) TcSKR1: peptide 10 μM, Sf9-TcSKR1 cells transiently transfected with pGL4.29[luc2P/CRE/Hygro], 5 h at 27 °C, Bright-Glo luminescence, activity related to nsSK, mean ± SEM, at least two biological replicates, SEM
Description: as §1, §2, §3, §4

TcSKR2 [2] = conditions: previous experiments; cited from earlier work
Text: As a satiety factor, insect SK signaling provides insights into the development of new pest control strategies. […] This lead to a hypothesis that sSK and nsSK interact with the two TcSKRs differently. Therefore, understanding the interaction of ligand and receptor will promote the ...

| Substance | peptide marked active on TcSKR2 (TcSKR2 [1]) | activity on TcSKR2 in words (TcSKR2 [1]) | relative activity (% nsSK) TcSKR2 (TcSKR2 [1]) | peptide marked active on TcSKR1 (TcSKR1) | activity on TcSKR1 in words (TcSKR1) | relative activity (% nsSK) TcSKR1 (TcSKR1) | potency of sSK relative to nsSK to activate TcSKR2 (TcSKR2 [2]) |
| --- | --- | --- | --- | --- | --- | --- | --- |
| DDY(SO3H)GHMRF-NH2 [Peptide 1658, sulfated SK-related peptide DDY(SO3H)GHMRF-NH2] | * | much more active than nsSK; also recorded: retention of activity | 516.8 ± 50.6 % nsSK | * | retention of activity | 64.8 ± 8.4 % nsSK | – |
| DDYGHMRF-NH2 [Peptide 2009, truncated nsSK, DDYGHMRF-NH2] | – | – | 1.2 ± 13.7 % nsSK | – | – | 7.8 ± 11.8 % nsSK | – |
| DYGHMRF-NH2 [Peptide 2010, truncated nsSK, DYGHMRF-NH2] | – | – | 8.6 ± 9.1 % nsSK | – | – | 28.1 ± 15.6 % nsSK | – |
| EADY(SO3H)GHNleRF-NH2 [Peptide 1591-1, sulfated SK-related peptide EADY(SO3H)GHNleRF-NH2] | * | much more active than nsSK; also recorded: retention of activity | 113.7 ± 60.5 % nsSK | * | retention of activity | 82.6 ± 2.0 % nsSK | – |
| FDDAGHMRF-NH2 [Peptide 2008, alanine-substituted nsSK, …-NH2] | – | inactive | 21.5 ± 10.7 % nsSK | – | inactive | 5.3 ± 1.5 % nsSK | – |
| FDDY(SO3H)GHMRF-NH2 [sSK, sulfated sulfakinin peptide FDDY(SO3H)GHMRF-NH2] | – | – | – | – | – | – | 1,000–10,000 times |
| FDDYAHMRF-NH2 [Peptide 2007, alanine-substituted nsSK, …-NH2] | – | – | 8.5 ± 5.3 % nsSK | – | kept the activity on TcSKR1 to some extent | 55.0 ± 7.1 % nsSK | – |
| FDDYGAMRF-NH2 [Peptide 2006, alanine-substituted nsSK, …-NH2] | – | inactive | 4.0 ± 9.9 % nsSK | – | inactive | 0.5 ± 0.7 % nsSK | – |
| FDDYGHARF-NH2 [Peptide 2005, alanine-substituted nsSK, …-NH2] | – | inactive | 11.9 ± 2.7 % nsSK | – | inactive | −0.8 ± 4.4 % nsSK | – |
| FDDYGHMAF-NH2 [Peptide 2004, alanine-substituted nsSK, …-NH2] | – | inactive | 18.7 ± 10.2 % nsSK | – | inactive | 58.0 ± 22.0 % nsSK | – |
| FDDYGHMRA-NH2 [Peptide 2003, alanine-substituted nsSK, …-NH2] | – | inactive | −3.5 ± 5.9 % nsSK | – | inactive | −2.0 ± 3.4 % nsSK | – |
| FDDYGHMRF-NH2 [nsSK, nonsulfated sulfakinin peptide …-NH2, parental peptide of the series, reference compound] | * | – | 100.0 ± 0.0 % nsSK | * | – | 100.0 ± 0.0 % nsSK | – |
| GHMRF-NH2 [Peptide 2053, truncated nsSK, GHMRF-NH2] | – | – | −4.8 ± 0.1 % nsSK | – | – | 0.6 ± 0.1 % nsSK | – |
| HMRF-NH2 [Peptide 2052, truncated nsSK, HMRF-NH2] | – | – | 1.8 ± 0.1 % nsSK | – | – | 6.8 ± 0.2 % nsSK | – |
| SDDY(SO3H)GHMRF-NH2 [Peptide 1835, sulfated SK-related peptide SDDY(SO3H)GHMRF-NH2] | * | much more active than nsSK; also recorded: retention of activity | 645.7 ± 126.6 % nsSK | * | retention of activity | 76.5 ± 7.6 % nsSK | – |
| YGHMRF-NH2 [Peptide 2011, truncated nsSK, YGHMRF-NH2] | – | – | 11.7 ± 13.5 % nsSK | – | – | 2.8 ± 2.5 % nsSK | – |
